A word on the IC50: it is the concentration that gives 50% inhibition.

Sequence of FXa (P00742 235-488 limits assumed): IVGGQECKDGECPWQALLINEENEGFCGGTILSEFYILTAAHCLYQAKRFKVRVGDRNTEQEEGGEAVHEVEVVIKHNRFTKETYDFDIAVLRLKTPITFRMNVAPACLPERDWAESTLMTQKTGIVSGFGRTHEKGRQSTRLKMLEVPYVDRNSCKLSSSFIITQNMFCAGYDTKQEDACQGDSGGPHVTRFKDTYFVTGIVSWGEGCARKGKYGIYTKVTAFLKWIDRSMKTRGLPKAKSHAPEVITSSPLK
Sequence of FXa (P00742 41-179 partner limits assumed): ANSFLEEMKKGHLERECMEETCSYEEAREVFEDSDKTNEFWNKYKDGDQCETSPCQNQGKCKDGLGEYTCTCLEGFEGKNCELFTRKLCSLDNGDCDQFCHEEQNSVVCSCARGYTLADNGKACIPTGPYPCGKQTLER

The target of one assay is T1, TF/FVIIa (Homo sapiens, UniProt P08709).
T1 construct: Coagulation factor VIIa initiates the extrinsic part of the coagulation cascade
T1 sequence (P08709 61-212): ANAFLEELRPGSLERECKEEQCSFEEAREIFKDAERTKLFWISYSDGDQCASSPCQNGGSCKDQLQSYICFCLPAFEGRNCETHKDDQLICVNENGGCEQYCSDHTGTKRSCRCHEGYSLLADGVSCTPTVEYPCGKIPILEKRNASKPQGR
T1 sequence (P08709 213-466): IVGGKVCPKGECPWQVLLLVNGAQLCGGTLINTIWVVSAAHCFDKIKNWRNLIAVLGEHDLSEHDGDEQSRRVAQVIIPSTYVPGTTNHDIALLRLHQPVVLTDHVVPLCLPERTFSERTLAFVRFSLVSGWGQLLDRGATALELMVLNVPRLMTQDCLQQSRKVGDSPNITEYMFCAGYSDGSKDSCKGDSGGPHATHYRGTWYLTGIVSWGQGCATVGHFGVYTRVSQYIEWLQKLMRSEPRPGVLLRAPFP
T1 sequence (P13726 33-295, further chain): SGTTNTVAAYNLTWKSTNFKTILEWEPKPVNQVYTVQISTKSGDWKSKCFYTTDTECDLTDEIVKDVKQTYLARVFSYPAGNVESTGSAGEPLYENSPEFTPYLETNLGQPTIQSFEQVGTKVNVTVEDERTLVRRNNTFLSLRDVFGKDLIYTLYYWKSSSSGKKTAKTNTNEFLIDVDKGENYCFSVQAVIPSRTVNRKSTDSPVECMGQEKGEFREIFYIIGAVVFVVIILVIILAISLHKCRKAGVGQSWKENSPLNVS
The experiment in a line: TF/FVIIa inhibition (TF/FVIIa-IC50). Format: biochemical.
Details: not given
The compound `C#Cc1ccc(NC(=O)N2C[C@H](OC)C[C@@H]2C(=O)Nc2ccc(-n3ccccc3=O)cc2)cc1` [Compound A1, 1-[(4-ethynylphenyl)]-2-{[4-(2-oxo-2H-pyridin-1-yl)phenyl]}-(2R,4R)-4-methoxypyrrolidine-1,2-dicarboxamide] displayed a concentration for half-maximal inhibition (IC50) of 1.9 nM.
Still for that read-out and setting: for `C#Cc1ccc(NC(=O)N2C[C@H](OC)C[C@@H]2C(=O)Nc2ccc(N3CCOCC3=O)cc2)cc1` [Compound A2, 1-[(4-ethynylphenyl)]-2-{[4-(3-oxomorpholin-4-yl)phenyl]}-(2R,4R)-4-methoxypyrrolidine-1,2-dicarboxamide] the value was 3.2 nM.

Another assay concerns the target FXa (Homo sapiens, UniProt P00742). The experiment in a line: Factor Xa inhibition (FXa-IC50). Format: biochemical.
Details: not given
In the case of `C#Cc1ccc(NC(=O)N2C[C@H](OC)C[C@@H]2C(=O)Nc2ccc(-n3ccccc3=O)cc2)cc1` [Compound A1, 1-[(4-ethynylphenyl)]-2-{[4-(2-oxo-2H-pyridin-1-yl)phenyl]}-(2R,4R)-4-methoxypyrrolidine-1,2-dicarboxamide], the half-maximal inhibitory concentration (IC50) turned out to be 1.3 nM.
On the same count and under the same terms, in the case of `C#Cc1ccc(NC(=O)N2C[C@H](OC)C[C@@H]2C(=O)Nc2ccc(N3CCOCC3=O)cc2)cc1` [Compound A2, 1-[(4-ethynylphenyl)]-2-{[4-(3-oxomorpholin-4-yl)phenyl]}-(2R,4R)-4-methoxypyrrolidine-1,2-dicarboxamide] it was 3.1 nM.

The same assay, now with this note: read-out: FXa-IC50.
`C#Cc1ccc(NC(=O)N2C[C@H](OCCOC)C[C@@H]2C(=O)Nc2ccc(N3CCOCC3=O)cc2)cc1` [Compound A4-9, 1-[(4-ethynylphenyl)]-2-{[4-(3-oxomorpholin-4-yl)phenyl]}-(2R,4R)-4-(methoxyethoxy)pyrrolidine-1,2-dicarboxamide]: the IC50 is 3.3 nM.
Same read-out and setting: in the case of `C#Cc1ccc(NC(=O)N2C[C@H](OCC(=O)OC)C[C@@H]2C(=O)Nc2ccc(N3CCOCC3=O)cc2)cc1` [Compound A4-10, 1-[(4-ethynylphenyl)]-2-{[4-(3-oxomorpholin-4-yl)phenyl]}-(2R,4R)-4-(methoxycarbonylmethoxy)pyrrolidine-1,2-dicarboxamide] it was 4.2 nM.
For the compound `C#Cc1ccc(NC(=O)N2CC(OCC(O)CO)CC2C(=O)Nc2ccc(N3CCOCC3=O)cc2)cc1` [Compound A4-7, 1-[(4-ethynylphenyl)]-2-{[4-(3-oxomorpholin-4-yl)phenyl]}-(2R,4R)-4-(2,3-dihydroxypropoxy)pyrrolidine-1,2-dicarboxamide], the 50% inhibitory concentration (IC50) is 3.1 nM.
Same read-out and setting: in the case of `C#Cc1ccc(NC(=O)N2CC(OCC)CC2C(=O)Nc2ccc(N3CCCCC3=O)cc2)cc1` [Compound A4-1, 1-[(4-ethynylphenyl)]-2-{[4-(2-oxopiperidin-1-yl)phenyl]}-(2R,4R)-4-ethoxypyrrolidine-1,2-dicarboxamide] it was 3 nM.
The same measure, in the same setting: for `C#CCO[C@@H]1C[C@H](C(=O)Nc2ccc(N3CCOCC3=O)cc2)N(C(=O)Nc2ccc(C#C)cc2)C1` [Compound A4-6, 1-[(4-ethynylphenyl)]-2-{[4-(3-oxomorpholin-4-yl)phenyl]}-(2R,4R)-4-propargyloxypyrrolidine-1,2-dicarboxamide] the value was 1.3 nM.
Same read-out and setting: in the case of `C#Cc1ccc(NC(=O)N2CC(OC)CC2C(=O)Nc2ccc(-n3ccccc3=O)c(OC)c2)cc1` [Compound A4-4, 1-[(4-ethynylphenyl)]-2-{[3-methoxy-4-(2-oxo-2H-pyridin-1-yl)phenyl]}-(2R,4R)-4-methoxypyrrolidine-1,2-dicarboxamide] it was 2.8 nM; in that of `C#Cc1ccc(NC(=O)N2CC(OC)CC2C(=O)Nc2ccc(N3CC(O)CC3C(=O)OC)cc2)cc1` [Compound A4-8, 1-[(4-ethynylphenyl)]-2-{[4-(2-methoxycarbonyl-4-hydroxypyrrolidin-1-yl)phenyl]}-(2R,4R)-4-methoxypyrrolidine-1,2-dicarboxamide], 1100 nM; in that of `C#Cc1ccc(NC(=O)N2C[C@H](OC)C[C@@H]2C(=O)Nc2ccc(-n3nc(C)ccc3=O)cc2)cc1` [Compound A4-12, 1-[(4-ethynylphenyl)]-2-{[4-(6-methyl-3-oxo-2H-pyridazin-2-yl)phenyl]}-(2R,4R)-4-methoxypyrrolidine-1,2-dicarboxamide], 2100 nM.
Regarding `C#Cc1ccc(NC(=O)N2CC(OCC)CC2C(=O)Nc2ccc(-n3ccccc3=O)c(F)c2)cc1` [Compound A4-2, 1-[(4-ethynylphenyl)]-2-{[3-fluoro-4-(2-oxo-2H-pyridin-1-yl)phenyl]}-(2R,4R)-4-ethoxypyrrolidine-1,2-dicarboxamide], the concentration for half-maximal inhibition (IC50) was found to be 1.9 nM.
Same read-out and setting: in the case of `C#Cc1ccc(NC(=O)N2C[C@H](OCC(=O)O)C[C@@H]2C(=O)Nc2ccc(N3CCOCC3=O)cc2)cc1` [Compound A4-11, 1-[(4-ethynylphenyl)]-2-{[4-(3-oxomorpholin-4-yl)phenyl]}-(2R,4R)-4-(carboxymethoxy)pyrrolidine-1,2-dicarboxamide] it was 4.8 nM.
For the compound `C#Cc1ccc(NC(=O)N2CC(OCC=C)CC2C(=O)Nc2ccc(N3CCOCC3=O)cc2)cc1` [Compound A4-5, 1-[(4-ethynylphenyl)]-2-{[4-(3-oxomorpholin-4-yl)phenyl]}-(2R,4R)-4-allyloxypyrrolidine-1,2-dicarboxamide], the IC50 is 3.1 nM.
Same read-out and setting: in the case of `C#Cc1ccc(NC(=O)N2CC(O)CC2C(=O)Nc2ccc3c(c2)CCN3C(C)=O)cc1` [Compound A4-3, 1-[(4-ethynylphenyl)]-2-{[1-acetyl-2,3-dihydro-1H-indol-5-yl]}-(2R,4R)-4-hydroxypyrrolidine-1,2-dicarboxamide] it was 2600 nM.

For the origin of these results see patent US7557222B2, “1-[(4-Ethynylphenyl)]-2-[(phenyl)]-pyrrolidine-1,2-dicarboxamide derivatives as inhibitors of coagulation factors Xa and VIIa for the treatment of thrombosis” (priority 2003, dated 2009).
